Structures can show the parent of a compound that is named as a salt. Where two headings read alike, the source gives them in different places.
Experiments:
[1] = tested on: tetrabenazine induced ptosis; assay: Tetrabenazine ptosis antagonism; assay type: in vivo; conditions: Mus musculus, ip, 0.5 h; i.p., mice; tetrabenazine 40 mg/kg i.p. 30 min after test substance
Description: For insoluble substances the doses 0, 1/8, 1/32 and 1/128 of "i.^p. LD50" are used. 3 mice are used for each dose level. Thirty minutes after administration of test substance, tetrabenazine, 40 mg/kg, is injected i.p. Ptosis is evaluated 30 minutes after administration of tetrabenazine, the following rating scale being used: 0 = normal eyes, 1=1/4 closed eyes, 2 = 1/2 closed eyes, 3 = 3/4 closed eyes and 4 = completely closed eyes. Ptosis is evaluated 30 seconds after tilting the cage 3 times. The tilting is carried out in such a way that the animals slide along the floor of the cage.
The results are recorded as % inhibition of ptotic score calculated on the basis of the score of the control group. If ptotic score for the control group is < 10 the test is rejected and another is performed. The registration can also be done as an on line procedure.

[2] = tested on: potentiation of 5-HTP; assay: 5-HTP potentiation (5-HTP syndrome); assay type: in vivo; conditions: Mus musculus, ip, 0.5 h; i.p., mice; 5-HTP 100 mg/kg i.v. 30 min after test substance; read-out: 5-HTP potentation,ED50
Description: The test substance is given i.p. or p.o. in the doses 10, 10, 2.5, 0.63 and 0 mg/kg. Three mice are used for each dose level. One of the groups on the highest dose is used as control of the compounds own effect. […] Thirty minutes after administration of test substance, 5-HTP, 100 mg/kg i.v. is given (injection time 5-10 sec.). After this 5-HTP dose the animals remain unaffected. If the animals have been pretreated with a substance, which inhibits the re-uptake of 5-HT, a 5-HTP syndrome will occur. This is characterized by the following symptoms: 1) excitation, 2) tremor, and 3) abduction of the hind limbs.
After the administration of 5-HTP the animals are observed for 15 minutes and each animal is given one point for each symptom present. Thus, the maximal score for a group consisting of 3 mice is 9.
The results are stated as fractions: 0/9, 1/9, 2/9 ..... 8/9, 9/9, where 0, 1, 2 ..... 8, 9 are the number of points per group after the dose in question.

[3] = target: T1, ^3H-DA uptake in striatal synaptosomes (Rattus norvegicus, UniProt P23977); assay: biochemical; assay type: biochemical, Rats
T1 construct: the two corpura striata are dissected out and gently homogenized; from tissue; host or cells: rat corpus striatum, synaptosomal P2 fraction
T1 sequence (P23977 whole entry): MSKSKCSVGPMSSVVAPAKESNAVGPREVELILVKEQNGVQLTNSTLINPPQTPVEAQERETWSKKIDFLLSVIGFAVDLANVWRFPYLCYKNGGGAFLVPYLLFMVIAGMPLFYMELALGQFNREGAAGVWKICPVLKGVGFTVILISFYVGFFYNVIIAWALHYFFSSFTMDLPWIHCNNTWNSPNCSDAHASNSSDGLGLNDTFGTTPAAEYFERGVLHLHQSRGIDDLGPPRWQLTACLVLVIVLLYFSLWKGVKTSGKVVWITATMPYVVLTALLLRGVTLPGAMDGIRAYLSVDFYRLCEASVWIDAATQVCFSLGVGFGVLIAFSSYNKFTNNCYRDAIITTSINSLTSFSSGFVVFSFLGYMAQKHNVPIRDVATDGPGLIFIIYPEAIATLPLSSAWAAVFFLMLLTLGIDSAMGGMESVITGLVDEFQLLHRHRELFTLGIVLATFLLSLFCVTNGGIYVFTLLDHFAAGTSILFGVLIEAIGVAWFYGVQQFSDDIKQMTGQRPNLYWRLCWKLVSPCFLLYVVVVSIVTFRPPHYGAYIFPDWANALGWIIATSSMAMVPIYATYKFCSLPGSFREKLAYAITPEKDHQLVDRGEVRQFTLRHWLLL
Description: ^3H-DA uptake in striatal synaptosomes in vitro.
(§1) 0.32 M sucrose containing 1 mM Nialamide
Krebs-Ringer-phosphate buffer, pH 7.4
3,4-dihydroxyphenylethylamine [ethyl-1-^3H(N)] = ^3H-DA, spc. act. app. 15 Ci/mmol, New England Nuclear
(§2) Thomas Tissue Grinder, clearance 0.004-0.006 inch.
Rats are killed by a blow to their head, exsanguinated and their brains removed. The brain is placed on a precooled glassplate, and the two corpura striata are dissected out and gently homogenized in 40 volumes of ice cold 0.32 M sucrose containing 1 mM of nialamide using a hand homogenizer with teflon pestle. The P2-fraction (synaptosomal fraction) is obtained by centrifugation (600 g, 10 min., 25000 g, 55 min. 4 °C) and suspended in 40 volumes of a modified Krebs-Ringer-phosphate buffer, pH 7.4. To 200µl of the synaptosomal fraction on ice are added 3700 µl modified Krebs-Ringer-phosphate buffer - containing test compounds. After a preincubation at 37°C for 5 min. […] The incubation is terminated by filtering the samples under vacuum through Millipore filters with a wash of 5 ml buffer containing 10 µM of unlabelled DA. After solubilizing the filters in 1 ml of cellosolve the radioactivity is determined by liquid scintillation counting after the addition of 10 ml of Insta-Gel. The unspecific binding of ^3H-DA is determined by incubating control samples on ice instead of at 37 °C.
All experiments are performed in ttriplicate.
The mean of all control samples and ice samples are calculated.

[4] = target: T2, ^3H-5-HT uptake in synaptosomes (Rattus norvegicus, UniProt P31652); assay: Inhibition of 3H-5-HT uptake in synaptosomes in vitro; assay type: biochemical, Rats
T2 construct: Rest of the brain is gently homogenized (glass teflon homogenizer); from tissue; host or cells: rat brain without cerebellum, pons and medulla oblongata, synaptosomal P2 fraction
T2 sequence (P31652 whole entry): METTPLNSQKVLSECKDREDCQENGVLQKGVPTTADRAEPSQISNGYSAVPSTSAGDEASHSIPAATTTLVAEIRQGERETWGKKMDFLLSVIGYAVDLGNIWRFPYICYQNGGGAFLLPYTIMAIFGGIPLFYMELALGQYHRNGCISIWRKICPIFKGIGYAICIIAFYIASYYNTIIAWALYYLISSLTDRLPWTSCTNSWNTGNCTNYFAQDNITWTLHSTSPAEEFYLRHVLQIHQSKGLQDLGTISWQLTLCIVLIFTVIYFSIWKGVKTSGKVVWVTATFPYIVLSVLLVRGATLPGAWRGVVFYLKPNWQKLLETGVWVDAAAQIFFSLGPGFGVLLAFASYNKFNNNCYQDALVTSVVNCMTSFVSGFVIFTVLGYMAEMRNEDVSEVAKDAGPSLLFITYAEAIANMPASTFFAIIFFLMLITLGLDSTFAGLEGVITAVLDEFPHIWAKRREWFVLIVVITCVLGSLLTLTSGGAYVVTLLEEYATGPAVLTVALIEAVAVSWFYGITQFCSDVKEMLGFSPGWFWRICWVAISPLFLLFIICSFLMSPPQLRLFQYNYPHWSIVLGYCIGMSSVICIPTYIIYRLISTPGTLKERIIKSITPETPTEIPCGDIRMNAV
Description: Inhibition of ^3H-5-HT uptake in synaptosomes in vitro.
as §1
Krebs-Ringer-Phosphate buffer, pH 7.4
Millipore filters (HAWPO 2500, 0.45 µ)
5-hydroxy [G-^3H] tryptamine creatinine sulphate = ^3H-5-HT, spc. act. app. 10 Ci/mmol, The Radiochemical Centre, Amersham.
as §2
Rats are killed by a blow on the head and exsanguinated. The brain is quickly removed, rinsed for blood and placed on a cold plate. The cerebellum, pons and medulla oblongata are removed. Rest of the brain is gently homogenized (glass teflon homogenizer) in 40 volumes of ice cold 0.32 M of sucrose containing 1 mM of nialamide. The P2 fraction (synaptosomal fraction) is obtained by centrifugation (600 g, 10 min. and 25000 g, 55 min., 4°C) and suspended in 40 volumes of a modified Krebs-Ringer-Phosphate buffer, pH 7.4.
To 200µl of the synaptosomal suspension on ice are added 3700 µl modified Krebs-Ringer-phosphate buffer, pH 7.4, containing test substances. After preincubation at 37°C for 5 min., 100 µl of ^3H-5-HT (final concentration in the samples = 10 nM) are added and the samples are incubated for 10 min. at 37 °C. The incubation is terminated by filtering the samples under vacuum through Millipore filters with a wash of 5 ml buffer containing 10 µM of unlabelled 5-HT. After solubilizing the filters in I ml of cellosolve, 10 ml of Instagel are added, and the radioactivity is determined by liquid and scintillation counting. The unspecific binding and passive transport of ^3H-5-HT is determined by incubating control samples on ice instead of at 37°C. All experiments are performed in triplicate. The mean of all control samples are calculated.
The IC50- values are determined as the concentrations, at which the uptake are 50 per cent of the uptake in control sample -uptake in ice samples.

[5] = rat striatal synaptosomes, 3H-DA 12.5 nM, read-out: Uptake Inhibition IC50 DA
[6] = rat brain synaptosomes, 3H-5-HT 10 nM, read-out: Uptake Inhibition IC50 5-HT
[7] = read-out: Uptake Inhibition IC50 DA

SMILES | ED50 [1] | ED50 [2] | IC50 [3, 5] | IC50 [4, 6] | IC50 [3, 7] | IC50 [3] | IC50 [4]
CN(C)C1CC(c2ccc(N)cc2)c2ccc(F)cc21 (stereo not shown) [Lu 19-022-c] | 19 µmol/kg | 14 µmol/kg | 170 nM | – | – | – | –
Cc1ccc2c(c1)[C@H](N(C)C)C[C@H]2c1ccc(F)cc1 (relative stereo) [Lu 18-125-c] | 41 µmol/kg | 44 µmol/kg | 100 nM | 9.8 nM | – | – | –
NC1CC(c2ccc(Cl)c(Cl)c2)c2ccccc21 (stereo not shown) [Lu 19-030-o] | 16 µmol/kg | > 27 µmol/kg | 7.4 nM | 15 nM | – | – | –
CN(C)C1CC(c2ccc(Cl)cc2Cl)c2ccccc21 (stereo not shown) [Lu 18-137-c] | 23 µmol/kg | 19 µmol/kg | 860 nM | 0.03 nM | – | – | –
CN(C)[C@@H]1C[C@@H](c2ccc(N)cc2)c2ccc(F)cc21 (relative stereo) [Lu 19-021] | 9 µmol/kg | 15 µmol/kg | 190 nM | 330 nM | – | – | –
CCN(CC)C1CC(c2ccc(Cl)c(Cl)c2)c2ccccc21 (stereo not shown) [Lu 18-188-c] | > 108 µmol/kg | – | – | 13 nM | 120 nM | – | –
CN(C)C1CC(c2ccc(F)cc2)c2ccccc21 (stereo not shown) [Lu 19-008-c] | > 137 µmol/kg | 25 µmol/kg | 250 nM | – | – | – | –
CCN(CC)[C@@H]1C[C@@H](c2ccc(F)cc2)c2ccc(C)cc21 (relative stereo) [Lu 18-200-c] | 63 µmol/kg | – | 210 nM | – | – | – | –
CSc1ccc2c(c1)C(N(C)C)CC2c1ccc(F)cc1 (stereo not shown) [Lu 19-017-c] | 27 µmol/kg | 23 µmol/kg | 150 nM | < 1 nM | – | – | –
CN(C)C1CC(c2ccc(F)cc2)c2ccc(C(F)(F)F)cc21 (stereo not shown) [Lu 18-150-c] | > 111 µmol/kg | 101 µmol/kg | 340 nM | 4.3 nM | – | – | –
CCNC1CC(c2ccc(Cl)c(Cl)c2)c2ccccc21 (stereo not shown) [Lu 19-041-c] | > 117 µmol/kg | 24 µmol/kg | 62 nM | – | – | – | –
CN(C)CCC=C1c2ccccc2CCc2ccccc21 [Amitrip-tyline, amitriptyline, reference compound] | 7 µmol/kg | – | – | – | – | 5400 nM | –
CN(C)C1CC(c2ccccc2)c2ccccc21 (stereo not shown) [Lu 19-025-c, reference compound] | > 143 µmol/kg | > 36 µmol/kg | – | 9.5 nM | 340 nM | – | –
CCN(CC)C1CC(c2ccc(F)cc2)c2ccc(F)cc21 (stereo not shown) [Lu 18-148-c] | > 118 µmol/kg | – | 1600 nM | 440 nM | – | – | –
CCN(CC)[C@@H]1C[C@@H](c2ccc(F)cc2)c2ccc(F)cc21 (relative stereo) [Lu 18-149-c] | 52 µmol/kg | – | 68 nM | 140 nM | – | – | –
Cc1ccc2c(c1)C(N(C)C)CC2c1ccc(F)cc1 (stereo not shown) [Lu 18-119] | 45 µmol/kg | > 37 µmol/kg | 71 nM | 1.4 nM | – | – | –
CCN(C)[C@@H]1C[C@@H](c2ccc(F)c(Cl)c2)c2ccccc21 (relative stereo) [Lu 19-105-o, trans N-ethyl-N-methyl-N-3-(3'-chloro-4'-fluorophenyl)-indanamine] | 12 µmol/kg | 95 µmol/kg | – | – | – | – | –

SMILES | ED50 [1] | ED50 [2] | IC50 [3, 5] | IC50 [4, 6] | IC50 [3, 7] | IC50 [3] | IC50 [4]
CN(C)C1CC(c2ccc(F)cc2)c2ccc(F)cc21 (stereo not shown) [Lu 18-147] | > 147 µmol/kg | 21 µmol/kg | 440 nM | 1.2 nM | – | – | –
CN(C)[C@@H]1C[C@@H](c2ccc(Cl)c(Cl)c2)c2ccc(O)cc21 (relative stereo) [Lu 20-031-b, trans N,N-dimethyl-3-(3,4-dichlorophenyl)-6-hydroxy-1-indanamine, hydrobromide] | 97 µmol/kg | 18 µmol/kg | – | – | – | – | –
COc1ccc2c(c1)[C@H](N(C)C)C[C@H]2c1ccc(Cl)c(Cl)c1 (relative stereo) [Lu 20-049-o] | 5.9 µmol/kg | 37 µmol/kg | – | – | – | – | –
CSc1ccc2c(c1)[C@H](N(C)C)C[C@H]2c1ccc(F)cc1 (relative stereo) [Lu 19-016-c] | 35 µmol/kg | 39 µmol/kg | 170 nM | 4.5 nM | – | – | –
CN[C@@H]1C[C@H](c2ccc(Br)cc2)c2ccccc21 (relative stereo) [Lu 19-103-c] | 29 µmol/kg | 6.6 µmol/kg | – | – | – | – | –
CN(C)[C@@H]1C[C@@H](c2ccccc2)c2ccccc21 (relative stereo) [Lu 19-026-c, reference compound] | 17 µmol/kg | > 35 µmol/kg | – | – | – | – | –
CN[C@@H]1C[C@H](c2ccc(F)cc2)c2ccccc21 (relative stereo) [Lu 19-108-c, cis N-methyl-3-(4'-fluorophenyl)-1-indanamine, hydrochloride] | 79 µmol/kg | 72 µmol/kg | – | – | – | – | –
OCCN[C@@H]1C[C@@H](c2ccc(Cl)c(Cl)c2)c2ccccc21 (relative stereo) [Lu 19-074-c] | 75 µmol/kg | 270 µmol/kg | – | – | – | – | –
CN(C)C1CC(O)(c2ccc(Cl)c(Cl)c2)c2ccccc21 (stereo not shown) [Lu 19-034, N,N-Dimethyl-3-(3,4-dichlorophenyl)-3-hydroxy-1-indanamine] | 9 µmol/kg | 11 µmol/kg | 130 nM | – | – | – | 1.7 nM
CN[C@@H]1C[C@H](c2ccc(F)c(F)c2)c2ccccc21 (relative stereo) [Lu 19-104-c, cis-N-methyl-3-(3,4-difluorophenyl)-1-indanamine] | 23 µmol/kg | 63 µmol/kg | – | – | – | – | –
CNC1CC(c2ccc(F)cc2)c2ccc(C)cc21 (stereo not shown) [Lu 19-091-c] | > 137 µmol/kg | 55 µmol/kg | – | – | – | – | –
CCCN(CCC)[C@@H]1C[C@@H](c2ccc(Cl)c(Cl)c2)c2ccccc21 (relative stereo) [Lu 19-042-c] | > 25 µmol/kg | > 100 µmol/kg | – | – | – | – | –
CCN(CC)[C@@H]1C[C@@H](c2ccc(Cl)c(Cl)c2)c2ccccc21 (relative stereo) [Lu 18-187-c] | 52 µmol/kg | 19 µmol/kg | – | – | – | – | –
CN(C)[C@@H]1C[C@H](c2ccc(Br)cc2)c2ccccc21 (relative stereo) [Lu 19-057] | 3.9 µmol/kg | 12 µmol/kg | – | – | – | – | –
CN(C)[C@@H]1C[C@@H](c2ccc(F)cc2)c2ccc(F)cc21 (relative stereo) [Lu 13-114-c] | 28 µmol/kg | > 130 µmol/kg | – | – | – | – | –
CN[C@@H]1C[C@@H](c2ccc(Cl)c(Cl)c2)c2ccc(F)cc21 (relative stereo) [Lu 19-136-c] | 33 µmol/kg | 27 µmol/kg | – | – | – | – | –

Source: EP0076669A1, “Novel 3-phenyl-1-indanamines, pharmaceutical compositions and methods of preparation” (KEFALAS A/S, priority 1981, dated 1983)
